Source: publication PMC10141592, “Stretching Peptides to Generate Small Molecule β-Strand Mimics” (ACS Central Science, 2023)
Converted amounts (≈) assume the structure as drawn. Like-named read-outs stand apart in the source and are kept apart here. *1 amine or outer side, *2 acyl side, *3 side chain or, on linkers, in order; H or OH if unused. Where a SMILES comes first, the peptide text is derived from it. Bridges are numbered along the chain shown (N, C = ends). [ ]: non-standard residue; d: D form. The star is where a group is joined. Dodecyloxycarbonyl = CCCCCCCCCCCCOC(=O)*; CH2C≡CC≡CCH2 = C(C#CC[*:2])#CC[*:1]; NMePra = C#CC[C@H](NC)C(=O)O; X1 = CCCCCCCCCCCCCCCCOC(=O)*; NMeS = CN[C@@H](CO)C(=O)O; Dab = NCC[C@H](N)C(=O)O; Propargyl = C#CC*

Experiments:
[1] = test system: S. epidermidis RP26a; assay type: cell-based; settings: 24 h
Experimental: (§1) Minimum Inhibitory Concentration Assay
(§2) MICs were performed in accordance with the broth microdilution protocol from the Clinical and Standards Laboratory Institute.3 Alkynomycins were dissolved at 10 mg/mL in DMSO and two-fold serial dilutions were made across a 96-well plate containing Muller-Hinton (MH) broth. One plate was used for each indicator organism, and each well reached a final inoculum of 5×10^5 colony forming units per mL. Using OD600 readings normalized to a negative control, MICs were recorded as the lowest concentration at which growth was inhibited after a 24 hr incubation at 37 C. Controls were included on each plate to ensure peptide and media sterility. MICs are reported in Table 2 and Tables S4, S5 as an average of at least three independent trials.
(§3) Indicator organisms were stored at -80 C as glycerol stocks. Each organism was streaked onto tryptic soy agar and grown for 24 hr at 37 C. Single colonies were picked and used to inoculate MH broth. Bacteria culture was diluted to reach an OD600 of 0.015 prior to being used for MIC assays. […]

[2] = test system: MRSA USA 300; assay type: cell-based; settings: USA 300, 24 h
Experimental: as §1, §2, §3

[3] = test system: E. coli BAS901 (permeabilized); assay type: cell-based; settings: CLSI broth microdilution, Muller-Hinton broth, 5×10^5 CFU/mL, 24 hr at 37 C, OD600, performed in triplicate
Experimental: as §1, §2, §3

[4] = test system: E. coli MG1655; assay type: cell-based; settings: MG1655, 24 h
Experimental: as §1, §2, §3

[5] = test system: MRSA USA 300; settings: previously reported value provided for reference; cited from earlier work
From the text: Table 2 Minimum Inhibitory Concentration of Alkynomycins against Gram-Positive and Gram-Negative Bacteria ^a | column: MRSA

[6] = test system: S. epidermidis RP26a; design: method as in 2 sources, ref 38 = [38]; PMID 21095572; doi:10.1016/j.chembiol.2010.09.009; Smith P. A.; Roberts T. C.; Romesberg F. E. Broad-spectrum antibiotic activity of the arylomycin natural products is masked by natural target mutations . Chem. Biol. 2010 , 17 ( 11 ), 1223 – 1231 . ||| ref 38 (a number printed in a supplementary file, which may have a reference list of its own: not looked up in the article's list); settings: previously reported value provided for reference; cited from earlier work
[7] = test system: E. coli BAS901 (permeabilized); settings: previously reported value provided for reference; cited from earlier work
[8] = test system: E. coli MG1655; design: method as in 2 sources, ref 38 = [38]; PMID 21095572; doi:10.1016/j.chembiol.2010.09.009; Smith P. A.; Roberts T. C.; Romesberg F. E. Broad-spectrum antibiotic activity of the arylomycin natural products is masked by natural target mutations . Chem. Biol. 2010 , 17 ( 11 ), 1223 – 1231 . ||| ref 38 (a number printed in a supplementary file, which may have a reference list of its own: not looked up in the article's list); settings: previously reported value provided for reference; cited from earlier work

Compound: CCCCCCCCCCCCOC(=O)N[C@@H](CCN)C(=O)N(C)[C@H]1CC#CC#CC[C@@H](C(N)=O)NC(=O)[C@H](C)NC1=O [Compound 10]
- MIC S. epidermidis [1]: 4 µg/mL (≈ 6.64 µM)
- MIC MRSA [2]: 16 µg/mL (≈ 26.5 µM)
- MIC E. coli Δ [3]: 4 µg/mL (≈ 6.64 µM)

Compound: CCCCCCCCCCCCCCCCOC(=O)N[C@@H](CCN)C(=O)N(C)[C@H]1CC#CC#CC[C@@H](C(N)=O)NC(=O)[C@H](C)NC1=O [Compound 11]
- MIC S. epidermidis [1]: 4 µg/mL (≈ 6.07 µM)
- MIC MRSA [2]: 8 µg/mL (≈ 12.1 µM)
- MIC E. coli [4]: > 64 µg/mL
- MIC E. coli Δ [3]: 4 µg/mL (≈ 6.07 µM)

Compound: CCCCCCCCCCCCOC(=O)N[C@@H](CCN)C(=O)N(C)[C@@H]1CC#CC#CC[C@H](C(N)=O)NC(=O)[C@H](C)NC1=O [Compound 12]
- MIC S. epidermidis [1]: 16 µg/mL (≈ 26.5 µM)
- MIC E. coli [4]: > 64 µg/mL
- MIC E. coli Δ [3]: 16 µg/mL (≈ 26.5 µM)

Compound: CCCCCCCCCCCCCCCCOC(=O)N[C@@H](CCN)C(=O)N(C)[C@@H]1CC#CC#CC[C@H](C(N)=O)NC(=O)[C@H](C)NC1=O [Compound 13]
- MIC S. epidermidis [1]: 16 µg/mL (≈ 24.3 µM)
- MIC E. coli [4]: > 64 µg/mL
- MIC E. coli Δ [3]: 32 µg/mL (≈ 48.6 µM)

Compound: CCCCCCCCCCCCOC(=O)N[C@@H](CCN)C(=O)N(C)[C@H]1CC#CC#CCOC[C@@H](C(N)=O)NC(=O)[C@H](C)NC1=O [Compound 14]
- MIC S. epidermidis [1]: 16 µg/mL (≈ 25.3 µM)
- MIC MRSA [2]: 16 µg/mL (≈ 25.3 µM)
- MIC E. coli [4]: > 64 µg/mL
- MIC E. coli Δ [3]: 16 µg/mL (≈ 25.3 µM)

Compound: CCCCCCCCCCCCCCCCOC(=O)N[C@@H](CCN)C(=O)N(C)[C@H]1CC#CC#CCOC[C@@H](C(N)=O)NC(=O)[C@H](C)NC1=O [Compound 15]
- MIC S. epidermidis [1]: 32 µg/mL (≈ 46.5 µM)
- MIC MRSA [2]: 16 µg/mL (≈ 23.2 µM)
- MIC E. coli [4]: > 64 µg/mL
- MIC E. coli Δ [3]: 16 µg/mL (≈ 23.2 µM)

Compound: CCCCCCCCCCCCOC(=O)N[C@@H](CCN)C(=O)N(C)[C@H]1CC#CC#CC[C@H](C(N)=O)NC(=O)[C@H](C)NC1=O [Compound S1]
- MIC S. epidermidis [1]: > 64 µg/mL
- MIC E. coli [4]: > 64 µg/mL
- MIC E. coli Δ [3]: > 64 µg/mL

Compound: CCCCCCCCCCCCCCCCOC(=O)N[C@@H](CCN)C(=O)N(C)[C@H]1CC#CC#CC[C@H](C(N)=O)NC(=O)[C@H](C)NC1=O [Compound S2]
- MIC S. epidermidis [1]: > 64 µg/mL
- MIC E. coli [4]: > 64 µg/mL
- MIC E. coli Δ [3]: > 64 µg/mL

Compound: CCCCCCCCCCCCOC(=O)N[C@@H](CCN)C(=O)N(C)[C@H]1COCC#CC#CC[C@@H](C(N)=O)NC(=O)[C@H](C)NC1=O [Compound S3]
- MIC S. epidermidis [1]: > 64 µg/mL
- MIC E. coli [4]: > 64 µg/mL
- MIC E. coli Δ [3]: > 64 µg/mL

Compound: CCCCCCCCCCCCCCCCOC(=O)N[C@@H](CCN)C(=O)N(C)[C@H]1COCC#CC#CC[C@@H](C(N)=O)NC(=O)[C@H](C)NC1=O [Compound S4]
- MIC S. epidermidis [1]: 64 µg/mL (≈ 92.9 µM)
- MIC E. coli [4]: > 64 µg/mL
- MIC E. coli Δ [3]: 64 µg/mL (≈ 92.9 µM)

Compound: CCCCCCCCCCCCOC(=O)N[C@@H](CCN)C(=O)N(C)[C@H]1COCC#CC#CC[C@H](C(N)=O)NC(=O)[C@H](C)NC1=O [Compound S5]
- MIC S. epidermidis [1]: > 64 µg/mL
- MIC E. coli [4]: > 64 µg/mL
- MIC E. coli Δ [3]: > 64 µg/mL

Compound: CCCCCCCCCCCCCCCCOC(=O)N[C@@H](CCN)C(=O)N(C)[C@H]1COCC#CC#CC[C@H](C(N)=O)NC(=O)[C@H](C)NC1=O [Compound S6]
- MIC S. epidermidis [1]: 64 µg/mL (≈ 92.9 µM)
- MIC E. coli [4]: > 64 µg/mL
- MIC E. coli Δ [3]: 64 µg/mL (≈ 92.9 µM)

Compound: CCCCCCCCCCCCOC(=O)N[C@@H](CCN)C(=O)N(C)[C@H]1COCC#CC#CCOC[C@@H](C(N)=O)NC(=O)[C@H](C)NC1=O [Compound S7] (Dodecyloxycarbonyl-[Dab][NMeS]AS-NH2; linker 2-4 via CH2C≡CC≡CCH2)
- MIC S. epidermidis [1]: > 64 µg/mL
- MIC E. coli [4]: > 64 µg/mL
- MIC E. coli Δ [3]: > 64 µg/mL

Compound: CCCCCCCCCCCCCCCCOC(=O)N[C@@H](CCN)C(=O)N(C)[C@H]1COCC#CC#CCOC[C@@H](C(N)=O)NC(=O)[C@H](C)NC1=O [Compound S8] (X1-[Dab][NMeS]AS-NH2; linker 2-4 via CH2C≡CC≡CCH2)
- MIC S. epidermidis [1]: 64 µg/mL (≈ 89 µM)
- MIC E. coli [4]: > 64 µg/mL
- MIC E. coli Δ [3]: 64 µg/mL (≈ 89 µM)

Compound: CCCCCCCCCCCCOC(=O)N[C@@H](CCN)C(=O)N[C@H]1CC#CC#CC[C@@H](C(N)=O)NC(=O)[C@H](C)NC1=O [Compound S9]
- MIC S. epidermidis [1]: > 64 µg/mL
- MIC E. coli [4]: > 64 µg/mL
- MIC E. coli Δ [3]: > 64 µg/mL

Compound: C#CCOC[C@H](NC(=O)[C@H](C)NC(=O)[C@H](CC#C)N(C)C(=O)[C@H](CCN)NC(=O)OCCCCCCCCCCCC)C(N)=O [Compound S10] (Dodecyloxycarbonyl-[Dab][NMePra]AS(Propargyl)-NH2)
- MIC S. epidermidis [1]: > 64 µg/mL
- MIC E. coli [4]: > 64 µg/mL

Compound: Arylomycin A-C16
- MIC MRSA [5]: 32 µg/mL
- MIC S. epidermidis [6]: 0.5 µg/mL
- MIC E. coli Δ [7]: 8 µg/mL
- MIC E. coli [8]: > 64 µg/mL
